Test results taken from PubChem BioAssay AID180 (DTP/NCI, 2004).
Several values for one entry are separate records, joined by “and”; a condition that tells them apart may be missing. Identical values can stand only once.

Test system: BDF1 mice, Adenocarcinoma 755 s.c., tumor weight T/C
Assay: NCI In Vivo Anticancer Drug Screen. Data for tumor model Adenocarcinoma 755 (subcutaneous) in B6D2F1 (BDF1) mice
Conditions: endpoint: mean tumor weight, higher = larger tumour
How it was run: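 Values express treated (T) relative to vehicle-dosed control (C) animals, based on survival or tumour size measured after compound treatment of mice bearing a transplanted tumour.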

**Q.** What does the source list for `S=c1nc[nH]c2nc[nH]c12`?
**A.** T/C (dose: 0.01 mg/kg/injection, schedule: Q01DX011 (ip), vehicle: carboxymethylcellulose (CMC)): 161 % of control; T/C (dose: 0.4 mg/kg/injection, schedule: Q01DX011 (ip), vehicle: carboxymethylcellulose (CMC)): 110 % of control; T/C (dose: 0.5 mg/kg/injection, schedule: Q01DX011 (ip), vehicle: saline): 13 % of control; T/C (dose: 0.69 mg/kg/injection, schedule: Q01DX011 (ip), vehicle: carboxymethylcellulose (CMC)): 9 % of control; T/C (dose: 0.75 mg/kg/injection, schedule: Q01DX011 (ip), vehicle: carboxymethylcellulose (CMC)): 4 % of control; T/C (dose: 0.87 mg/kg/injection, schedule: Q01DX011 (ip), vehicle: saline): 21 % of control; T/C (dose: 0.9 mg/kg/injection, schedule: Q01DX011 (ip), vehicle: carboxymethylcellulose (CMC)): 31 % of control; T/C (dose: 1.0 mg/kg/injection, schedule: Q01DX007 (ip), vehicle: carboxymethylcellulose (CMC)): 23 % of control; T/C (dose: 1.0 mg/kg/injection, schedule: Q01DX011 (ip), vehicle: saline): 2 % of control and 16 % of control and 27 % of control; T/C (dose: 1.07 mg/kg/injection, schedule: Q01DX011 (ip), vehicle: carboxymethylcellulose (CMC)): 32 % of control; T/C (dose: 1.25 mg/kg/injection, schedule: Q01DX011 (ip), vehicle: carboxymethylcellulose (CMC)): 3 % of control and 11 % of control; T/C (dose: 1.38 mg/kg/injection, schedule: Q01DX011 (ip), vehicle: carboxymethylcellulose (CMC)): 4 % of control; T/C (dose: 1.5 mg/kg/injection, schedule: Q01DX011 (ip), vehicle: alkali diluted with saline): 8 % of control; T/C (dose: 1.5 mg/kg/injection, schedule: Q01DX011 (ip), vehicle: saline): 3 % of control and 7 % of control; T/C (dose: 1.75 mg/kg/injection, schedule: Q01DX011 (ip), vehicle: saline): 13 % of control; T/C (dose: 1.75 mg/kg/injection, schedule: Q01DX011 (oral), vehicle: saline): 22 % of control; T/C (dose: 1.8 mg/kg/injection, schedule: Q01DX011 (ip), vehicle: carboxymethylcellulose (CMC)): 4 % of control and 15 % of control; T/C (dose: 2.0 mg/kg/injection, schedule: Q01DX007 (ip), vehicle: carboxymethylcellulose (CMC)): 2 % of control and 9 % of control; T/C (dose: 2.0 mg/kg/injection, schedule: Q01DX011 (ip), vehicle: alkali diluted with saline): 2 % of control; T/C (dose: 2.14 mg/kg/injection, schedule: Q01DX011 (ip), vehicle: carboxymethylcellulose (CMC)): 9 % of control; T/C (dose: 2.5 mg/kg/injection, schedule: Q01DX011 (oral), vehicle: alkali diluted with saline): 4 % of control; T/C (dose: 2.67 mg/kg/injection, schedule: Q01DX011 (ip), vehicle: carboxymethylcellulose (CMC)): 20 % of control; T/C (dose: 2.75 mg/kg/injection, schedule: Q01DX011 (ip), vehicle: carboxymethylcellulose (CMC)): 3 % of control; T/C (dose: 3.0 mg/kg/injection, schedule: Q01DX011 (ip), vehicle: carboxymethylcellulose (CMC)): 1 % of control and 2 % of control and 6 % of control; T/C (dose: 3.0 mg/kg/injection, schedule: Q01DX011 (ip), vehicle: saline): 1 % of control; T/C (dose: 3.5 mg/kg/injection, schedule: Q01DX011 (ip), vehicle: saline): 4 % of control; T/C (dose: 3.5 mg/kg/injection, schedule: Q01DX011 (oral), vehicle: saline): 8 % of control; T/C (dose: 4.0 mg/kg/injection, schedule: Q01DX011 (ip), vehicle: carboxymethylcellulose (CMC)): 7 % of control; T/C (dose: 4.0 mg/kg/injection, schedule: Q01DX011 (ip), vehicle: saline): 5 % of control; T/C (dose: 4.28 mg/kg/injection, schedule: Q01DX011 (ip), vehicle: carboxymethylcellulose (CMC)): 4 % of control and 9 % of control; T/C (dose: 5.0 mg/kg/injection, schedule: Q01DX007 (ip), vehicle: carboxymethylcellulose (CMC)): 8 % of control; T/C (dose: 5.0 mg/kg/injection, schedule: Q01DX011 (ip), vehicle: alkali diluted with saline): 4 % of control; T/C (dose: 5.35 mg/kg/injection, schedule: Q01DX011 (ip), vehicle: carboxymethylcellulose (CMC)): 7 % of control and 17 % of control; T/C (dose: 5.5 mg/kg/injection, schedule: Q01DX011 (ip), vehicle: carboxymethylcellulose (CMC)): 4 % of control and 6 % of control; T/C (dose: 6.0 mg/kg/injection, schedule: Q01DX011 (ip), vehicle: alkali diluted with saline): 4 % of control; T/C (dose: 6.0 mg/kg/injection, schedule: Q01DX011 (ip), vehicle: saline): 1 % of control and 5 % of control; T/C (dose: 7.0 mg/kg/injection, schedule: Q01DX011 (oral), vehicle: saline): 10 % of control; T/C (dose: 7.13 mg/kg/injection, schedule: Q01DX011 (ip), vehicle: carboxymethylcellulose (CMC)): 8 % of control; T/C (dose: 10.0 mg/kg/injection, schedule: Q01DX011 (ip), vehicle: alkali diluted with saline): 1 % of control and 9 % of control; T/C (dose: 10.0 mg/kg/injection, schedule: Q01DX011 (oral), vehicle: alkali diluted with saline): 1 % of control; T/C (dose: 10.7 mg/kg/injection, schedule: Q01DX011 (ip), vehicle: carboxymethylcellulose (CMC)): 7 % of control and 8 % of control; T/C (dose: 11.0 mg/kg/injection, schedule: Q01DX011 (ip), vehicle: carboxymethylcellulose (CMC)): 4 % of control; T/C (dose: 12.5 mg/kg/injection, schedule: Q01DX011 (ip), vehicle: carboxymethylcellulose (CMC)): 1 % of control; T/C (dose: 15.0 mg/kg/injection, schedule: Q01DX011 (ip), vehicle: carboxymethylcellulose (CMC)): 4 % of control; T/C (dose: 15.0 mg/kg/injection, schedule: Q01DX011 (ip), vehicle: saline): 1 % of control and 4 % of control; T/C (dose: 20.0 mg/kg/injection, schedule: Q01DX011 (ip), vehicle: alkali diluted with saline): 1 % of control and 4 % of control; T/C (dose: 21.4 mg/kg/injection, schedule: Q01DX011 (ip), vehicle: carboxymethylcellulose (CMC)): 6 % of control; T/C (dose: 22.0 mg/kg/injection, schedule: Q01DX011 (ip), vehicle: carboxymethylcellulose (CMC)): 3 % of control; T/C (dose: 25.0 mg/kg/injection, schedule: Q01DX011 (ip), vehicle: alkali diluted with saline): 2 % of control and 11 % of control; T/C (dose: 25.0 mg/kg/injection, schedule: Q01DX011 (ip), vehicle: carboxymethylcellulose (CMC)): 4 % of control; T/C (dose: 25.0 mg/kg/injection, schedule: Q01DX011 (ip), vehicle: saline): 3 % of control; T/C (dose: 30.0 mg/kg/injection, schedule: Q01DX011 (ip), vehicle: carboxymethylcellulose (CMC)): 4 % of control and 6 % of control; T/C (dose: 35.0 mg/kg/injection, schedule: Q01DX011 (ip), vehicle: carboxymethylcellulose (CMC)): 5 % of control; T/C (dose: 40.0 mg/kg/injection, schedule: Q01DX011 (ip), vehicle: alkali diluted with saline): 2 % of control; T/C (dose: 40.0 mg/kg/injection, schedule: Q01DX011 (ip), vehicle: carboxymethylcellulose (CMC)): 5 % of control; T/C (dose: 44.0 mg/kg/injection, schedule: Q01DX007 (ip), vehicle: carboxymethylcellulose (CMC)): 3 % of control; T/C (dose: 44.0 mg/kg/injection, schedule: Q01DX011 (ip), vehicle: alkali diluted with saline): 2 % of control; T/C (dose: 44.0 mg/kg/injection, schedule: Q01DX011 (ip), vehicle: carboxymethylcellulose (CMC)): 3 % of control and 5 % of control; T/C (dose: 50.0 mg/kg/injection, schedule: Q01DX011 (ip), vehicle: alkali diluted with saline): 4 % of control; T/C (dose: 60.0 mg/kg/injection, schedule: Q01DX011 (ip), vehicle: carboxymethylcellulose (CMC)): 4 % of control; T/C (dose: 62.0 mg/kg/injection, schedule: Q01DX011 (ip), vehicle: saline): 2 % of control; T/C (dose: 65.0 mg/kg/injection, schedule: Q01DX011 (ip), vehicle: alkali diluted with saline): 1 % of control; T/C (dose: 80.0 mg/kg/injection, schedule: Q01DX011 (ip), vehicle: alkali diluted with saline): 2 % of control and 4 % of control; T/C (dose: 100.0 mg/kg/injection, schedule: Q01DX011 (ip), vehicle: alkali diluted with saline): 1 % of control; T/C (dose: 100.0 mg/kg/injection, schedule: Q01DX011 (ip), vehicle: saline): 1 % of control; T/C (dose: 320.0 mg/kg/injection, schedule: Q01DX001 (ip), vehicle: alkali diluted with saline): 5 % of control; T/C (dose: 320.0 mg/kg/injection, schedule: Q01DX001 (oral), vehicle: alkali diluted with saline): 19 % of control; T/C (dose: 320.0 mg/kg/injection, schedule: Q07DX002 (ip), vehicle: alkali diluted with saline): 4 % of control; T/C (dose: 480.0 mg/kg/injection, schedule: Q01DX001 (oral), vehicle: alkali diluted with saline): 22 % of control; T/C (dose: 480.0 mg/kg/injection, schedule: Q03DX004 (oral), vehicle: alkali diluted with saline): 1 % of control; T/C (dose: 480.0 mg/kg/injection, schedule: Q07DX002 (oral), vehicle: alkali diluted with saline): 2 % of control; T/C (dose: 640.0 mg/kg/injection, schedule: Q01DX001 (oral), vehicle: alkali diluted with saline): 10 % of control; T/C (dose: 640.0 mg/kg/injection, schedule: Q07DX002 (oral), vehicle: alkali diluted with saline): 2 % of control; T/C (dose: 125.0 micrograms/kg/injection, schedule: Q01DX011 (ip), vehicle: saline): 11 % of control; T/C (dose: 250.0 micrograms/kg/injection, schedule: Q01DX011 (ip), vehicle: saline): 20 % of control; T/C (dose: 500.0 micrograms/kg/injection, schedule: Q01DX011 (ip), vehicle: saline): 9 % of control; T/C (dose: 1000.0 micrograms/kg/injection, schedule: Q01DX011 (ip), vehicle: saline): 3 % of control
